# According to BindingDB's records for doi:10.1021/jm1012193 (University of Bonn, 2012):
# Molecular target: T1, P2X purinoceptor 2 (Rattus norvegicus, UniProt P49653)
# T1 sequence (P49653 whole entry): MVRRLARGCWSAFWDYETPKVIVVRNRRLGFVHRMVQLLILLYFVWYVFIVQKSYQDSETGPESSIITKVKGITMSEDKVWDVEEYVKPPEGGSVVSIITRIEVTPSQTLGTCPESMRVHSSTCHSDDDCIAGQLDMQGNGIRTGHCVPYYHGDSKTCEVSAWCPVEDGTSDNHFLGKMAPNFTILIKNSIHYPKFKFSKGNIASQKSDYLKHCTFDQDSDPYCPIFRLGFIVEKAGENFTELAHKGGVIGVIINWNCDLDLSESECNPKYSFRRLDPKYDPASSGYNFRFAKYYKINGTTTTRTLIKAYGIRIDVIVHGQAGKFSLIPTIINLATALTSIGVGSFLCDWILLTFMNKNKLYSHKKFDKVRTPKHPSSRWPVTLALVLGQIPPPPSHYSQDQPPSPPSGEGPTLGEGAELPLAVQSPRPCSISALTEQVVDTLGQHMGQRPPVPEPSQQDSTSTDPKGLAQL
# Assay: Antagonist activity against rat […] receptor expressed in Xenopus laevis oocyte assessed as inhibition of alpha, beta-meATP-induced inward current by two-electrode voltage-clamp electrophysiology
compound,measurement,value
"Nc1ncnc2c1ncn2C1OC(COP(=O)(O)OP(=O)(O)OP(=O)(O)O)C2OC3(OC21)C([N+](=O)[O-])=CC([N+](=O)[O-])=CC3=[N+]([O-])[O-] (stereo not drawn) [sodium(3a'R,4'R,6'R,6a'R)-4'-(6-amino-9H-purin-9-yl)-2,6-dinitro-6'-((oxido(oxido(phosphonatooxy)phosphoryloxy)phosphoryloxy)methyl)-3a',4',6',6a'-tetrahydrospiro[cyclohexa[2,5]diene-1,2'-furo[3,4-d][1,3]dioxole]-4-ylideneazinate]",IC50,4 µM
